This is an account of results in US20080175800A1, “USE OF SPECIFIC MENTHYL 3-OXOCARBOXYLIC ACID ESTERS AS PHYSIOLOGICALLY ACTIVE COOLING SUBSTANCES” (SYMRISE GmbH & Co. KG, priority 2007, published 2008).

SMILES strings stand for the structures.

Test [1] can be described thus: Skin-cooling characteristics, application site forearm. Format: in vivo. To be noted: forearm of human test subjects; compared with L-menthyl lactate (Frescolat ML).
Test [2] is described as follows: Sensory evaluation in confectioner's fondant by a panel of experts (cooling action). The class given is in vivo. The following applies: 0.05 wt. % in confectioner's fondant; for cooling action: scale from 1 (no cooling action) to 9 (extremely strong cooling action). Here is the method:
The compounds from Examples 1 and 2 were tested for their sensory properties, in particular their cooling action. To this end, they were dissolved, in each case in a specific final concentration, in a mass prepared from sucrose (saccharose) and water (confectioner's fondant, supplier Nordzucker AG, Nordstemmen) and evaluated by a panel of experts. Sensory impressions were rated and the cooling action was assessed on a scale from 1 (no cooling action) to 9 (extremely strong cooling action).

As for `CCC(=O)CC(=O)O[C@@H]1C[C@H](C)CC[C@H]1C(C)C` [Example 2, (L)-menthyl 3-oxo-pentanoate], the “skin intensity of cooling” value in test [1] is given as “overall weaker intensity of cooling”. For the same compound, the “onset and duration of cooling action” value in test [2] (compared with Example 1) is “slower onset but longer lasting than Example 1”. For the same compound, the cooling action in test [2] is on record as 5-6.
`CC(=O)CC(=O)O[C@@H]1C[C@H](C)CC[C@H]1C(C)C` [Example 1, (L)-menthyl 3-oxo-butyrate]: the “skin intensity of cooling” value in test [1] is reported as “overall weaker intensity of cooling”. The cooling action in test [2] was 5-6.
